Experimental data from publication PMC7954579 (Cancer chemotherapy and pharmacology, 2020).

Experiments:
[1] = Plasma pharmacokinetics in patients; type: in vivo, human; conditions: for AUC / Cmax / half-life: human, plasma
HSP70 [2] = assay: Soluble HSP70 protein in patient plasma by ELISA; type: in vivo, human
HSP70 [3] = assay: HSP70 protein in patient PBMCs by western blot; type: in vivo, human; conditions: after onalespib alone (C0D4), all dose levels
[4] = IV, days 1, 4, 8, 11 of 21-day cycle, with AT7519 21 mg/m^2 (DL2)
HSP90 = conditions: cited from earlier work
[5] = twice-weekly schedule, monotherapy; cited from earlier work
[6] = All dose levels, C0D1, onalespib alone, n = 27, geometric mean
[7] = All dose levels, C1D1, onalespib with AT7519, n = 24, geometric mean
[8] = All dose levels, C1D11, onalespib with AT7519, n = 16, geometric mean
[9] = DL1, C0D1, onalespib 40 mg/m^2 IV alone, n = 5, geometric mean
[10] = DL1, C1D1, onalespib 40 mg/m^2 with AT7519 21 mg/m^2, n = 4, geometric mean
[11] = DL1, C1D11, onalespib 40 mg/m^2 with AT7519 21 mg/m^2, n = 2, geometric mean
[12] = DL2, C0D1, onalespib 80 mg/m^2 IV alone, n = 17, geometric mean
[13] = DL2, C1D1, onalespib 80 mg/m^2 with AT7519 21 mg/m^2, n = 16, geometric mean
[14] = DL2, C1D11, onalespib 80 mg/m^2 with AT7519 21 mg/m^2, n = 11, geometric mean
[15] = DL3, C0D1, onalespib 80 mg/m^2 IV alone, n = 5, geometric mean
[16] = DL3, C1D1, onalespib 80 mg/m^2 with AT7519 27 mg/m^2, n = 4, geometric mean
[17] = DL3, C1D11, onalespib 80 mg/m^2 with AT7519 27 mg/m^2, n = 3, geometric mean

CC(C)c1cc(C(=O)N2Cc3ccc(CN4CCN(C)CC4)cc3C2)c(O)cc1O [onalespib, (2,4-dihydroxy-5-isopropylphenyl)-[5-(4-methylpiperazin-1-ylmethyl)-1,3-dihydroisoindol-2-yl]methanone]
CL [1, 6]: 52.2 L/h/m^2
Vz [1, 6]: 754 L/m^2
CL [1, 7]: 58.4 L/h/m^2
Vz [1, 7]: 725 L/m^2
CL [1, 8]: 61.0 L/h/m^2
Vz [1, 8]: 706 L/m^2
CL [1, 9]: 51.3 L/h/m^2
Vz [1, 9]: 742 L/m^2
CL [1, 10]: 64.4 L/h/m^2
Vz [1, 10]: 891 L/m^2
CL [1, 11]: 65.6 L/h/m^2
Vz [1, 11]: 855 L/m^2
CL [1, 12]: 53.8 L/h/m^2
Vz [1, 12]: 804 L/m^2
CL [1, 13]: 57.5 L/h/m^2
Vz [1, 13]: 721 L/m^2
CL [1, 14]: 62.5 L/h/m^2
Vz [1, 14]: 743 L/m^2
CL [1, 15]: 47.7 L/h/m^2
Vz [1, 15]: 617 L/m^2
CL [1, 16]: 56.7 L/h/m^2
Vz [1, 16]: 606 L/m^2
CL [1, 17]: 53.1 L/h/m^2
Vz [1, 17]: 516 L/m^2
AUC ([1]; intravenous, AUC, DL1, C1D1, onalespib 40 mg/m^2 with AT7519 21 mg/m^2, n = 4, geometric mean): 621 ng·h/mL
AUC ([1]; intravenous, AUC, DL1, C1D11, onalespib 40 mg/m^2 with AT7519 21 mg/m^2, n = 2, geometric mean): 610 ng·h/mL
AUC ([1]; intravenous, AUC, DL2, C1D1, onalespib 80 mg/m^2 with AT7519 21 mg/m^2, n = 16, geometric mean): 1390 ng·h/mL
AUC ([1]; intravenous, AUC, DL2, C1D11, onalespib 80 mg/m^2 with AT7519 21 mg/m^2, n = 11, geometric mean): 1280 ng·h/mL
AUC ([1]; intravenous, AUC, DL3, C1D1, onalespib 80 mg/m^2 with AT7519 27 mg/m^2, n = 4, geometric mean): 1410 ng·h/mL
AUC ([1]; intravenous, AUC, DL3, C1D11, onalespib 80 mg/m^2 with AT7519 27 mg/m^2, n = 3, geometric mean): 1510 ng·h/mL
Cmax ([1]; intravenous, Cmax, DL1, C1D1, onalespib 40 mg/m^2 with AT7519 21 mg/m^2, n = 4, geometric mean): 146 ng/mL
Cmax ([1]; intravenous, Cmax, DL1, C1D11, onalespib 40 mg/m^2 with AT7519 21 mg/m^2, n = 2, geometric mean): 155 ng/mL
Cmax ([1]; intravenous, Cmax, DL2, C1D1, onalespib 80 mg/m^2 with AT7519 21 mg/m^2, n = 16, geometric mean): 331 ng/mL
Cmax ([1]; intravenous, Cmax, DL2, C1D11, onalespib 80 mg/m^2 with AT7519 21 mg/m^2, n = 11, geometric mean): 355 ng/mL
Cmax ([1]; intravenous, Cmax, DL3, C1D1, onalespib 80 mg/m^2 with AT7519 27 mg/m^2, n = 4, geometric mean): 331 ng/mL
Cmax ([1]; intravenous, Cmax, DL3, C1D11, onalespib 80 mg/m^2 with AT7519 27 mg/m^2, n = 3, geometric mean): 424 ng/mL
half-life ([1]; intravenous, t1/2,z, All dose levels, C0D1, onalespib alone, n = 27, geometric mean): 10 h
half-life ([1]; intravenous, t1/2,z, DL1, C1D1, onalespib 40 mg/m^2 with AT7519 21 mg/m^2, n = 4, geometric mean): 9.6 h
half-life ([1]; intravenous, t1/2,z, DL1, C1D11, onalespib 40 mg/m^2 with AT7519 21 mg/m^2, n = 2, geometric mean): 9.4 h
half-life ([1]; intravenous, t1/2,z, DL2, C1D1, onalespib 80 mg/m^2 with AT7519 21 mg/m^2, n = 16, geometric mean): 8.7 h
half-life ([1]; intravenous, t1/2,z, DL2, C1D11, onalespib 80 mg/m^2 with AT7519 21 mg/m^2, n = 11, geometric mean): 8.2 h
half-life ([1]; intravenous, t1/2,z, DL3, C1D1, onalespib 80 mg/m^2 with AT7519 27 mg/m^2, n = 4, geometric mean): 7.4 h
half-life ([1]; intravenous, t1/2,z, DL3, C1D11, onalespib 80 mg/m^2 with AT7519 27 mg/m^2, n = 3, geometric mean): 6.7 h
AUC ([1]; iv, 40 mg/m2, AUC, DL1, C0D1, onalespib 40 mg/m^2 IV alone, n = 5, geometric mean): 780 ng·h/mL
Cmax ([1]; iv, 40 mg/m2, Cmax, DL1, C0D1, onalespib 40 mg/m^2 IV alone, n = 5, geometric mean): 193 ng/mL
half-life ([1]; iv, 40 mg/m2, t1/2,z, DL1, C0D1, onalespib 40 mg/m^2 IV alone, n = 5, geometric mean): 10 h
AUC ([1]; iv, 80 mg/m2, AUC, DL2, C0D1, onalespib 80 mg/m^2 IV alone, n = 17, geometric mean): 1490 ng·h/mL
AUC ([1]; iv, 80 mg/m2, AUC, DL3, C0D1, onalespib 80 mg/m^2 IV alone, n = 5, geometric mean): 1680 ng·h/mL
Cmax ([1]; iv, 80 mg/m2, Cmax, DL2, C0D1, onalespib 80 mg/m^2 IV alone, n = 17, geometric mean): 349 ng/mL
Cmax ([1]; iv, 80 mg/m2, Cmax, DL3, C0D1, onalespib 80 mg/m^2 IV alone, n = 5, geometric mean): 487 ng/mL
half-life ([1]; iv, 80 mg/m2, t1/2,z, DL2, C0D1, onalespib 80 mg/m^2 IV alone, n = 17, geometric mean): 10.4 h
half-life ([1]; iv, 80 mg/m2, t1/2,z, DL3, C0D1, onalespib 80 mg/m^2 IV alone, n = 5, geometric mean): 9 h
HSP70 protein expression in plasma (HSP70 [2]; after onalespib alone (C0D4), all dose levels): Increased HSP70 protein expression
Soluble HSP70 expression in plasma (HSP70 [2]; patient with palate adenocarcinoma (confirmed PR), after onalespib alone): increase in soluble HSP70 expression
HSP70 protein expression in PBMCs (HSP70 [3]): Increased HSP70 protein expression
Maximally tolerated dose (MTD) of onalespib in the combination [4]: 80 mg/m^2
IC50 (HSP90): 0.7 nM
RP2D as individual agent [5]: 120 mg/m^2
